Source: US6346258B1, “Physiological combination of active substances to enhance the skin's defenses against noxious agents” (priority 1997, dated 2002)

System: chorioallantoic membrane
Assay: hen's egg test on the chorioallantoic membrane (HET-CAM): protective effect against the irritant 2% sodium dodecylsulfate
Parameters: species or system hen's eggs, American White Leghorn (Shaver Starcross 288)
Details: for protective effect (in words): applied 5 min before 2% sodium dodecylsulfate, compared to distilled water, NaCl 0.05/0.5/1.0%, CaCl2 0.05/0.5/5%, sorbitol 0.01/0.1/1% by weight; for Response (x) after 30 s / Response (x) after 2 min / Response (x) after 5 min: rating 0 (no response) to 7 (coagulation), 0.2 ml aqueous test substance, 5 min later 0.2 ml 2% sodium dodecylsulfate; for Response (x) after 30 s: read after 30 s; for Response (x) after 2 min: read after 2 min; for Response (x) after 5 min: read after 5 min
Experimental: Evidence of the activity in terms of enhancing the skin's defenses against noxious agents was furnished in a hen's egg test on the chorioallantoic membrane (HET-CAM), an established predictional test for detecting the irritation potency for the skin and mucosa. For testing, eggs of the race “American White Leghorn” ([…] 288) were employed. The eggs were incubated for 9 d (start of incubation=day 1) in a small-size motor incubator having an automatic turning over device and an automatic moisturizing control (type […] GmbH) at 37±1° C. and 65±5% of relative humidity. At day 9, the eggs were transilluminated for detecting fertilization, the non-fertilized eggs were sorted out, the remaining eggs were placed upright with the blunt pole (air bubble) up and incubated for another 24 h without turning over. At day 10, the egg pole was removed with fine scissors and tweezers, and the chorioallantoic membrane exposed. The following items were tested: irritant effect of the combination of active substances and its components protective effect Thus, 0.2 ml each of the aqueous solution of the test substance was applied, and after an interval of 5 min, 0.2 ml of a 2% solution of the irritant sodium dodecylsulfate was applied. The outcome of the response was compared to the effect obtained with water (placebo) according to the following rating: 0 no response 1 hyperemia-slight 2 hyperemia-medium 3 hyperemia-strong 4 hemorrhage-isolated 5 hemorrhage-frequent 6 hemorrhage-massive 7 coagulation […]

| Structure (SMILES) | protective effect (in words) | Response (x) after 30 s | Response (x) after 2 min | Response (x) after 5 min |
| --- | --- | --- | --- | --- |
| [Ca+2].[Cl-].[Cl-] [CaCl2, calcium chloride] | did not display any protective effects | – | – | – |
| N#C[S-].[Na+] [Comp. 2, NaSCN] | display a skin protective activity | 2.8 | 3.1 | 3.8 |
| NC(N)=O [Comp. 3, urea] | display a skin protective activity | 2.8 | 3.6 | 4.0 |
| [Cl-].[Na+] [NaCl, sodium chloride] | did not display any protective effects | – | – | – |
| OC[C@@H](O)[C@@H](O)[C@H](O)[C@@H](O)CO [sorbitol] | did not display any protective effects | – | – | – |
